Data from ChEMBL document CHEMBL1128041, “Thiophene derivatives as extremely high affinity P3 ligands for the hydroxyethylpiperazine class of HIV-1 protease inhibitors” (Bioorg Med Chem Lett, 1995).
Converted amounts (≈) assume the structure as drawn.

Tests used:
[1] = system: MT4; test: Compound was tested in vitro for antiviral activity against MT-4 human lymphoid cells infected with the HIV IIIb isolate; type: functional; details: read-out: CIC95
[2] = Solubility at pH 5.2; type: physicochemical; details: buffer
[3] = Solubility at pH 7.4; type: physicochemical; details: buffer
[4] = system: MT4; test: Compound was tested in vitro for antiviral activity against MT-4 human lymphoid cells infected with the HIV IIIb isolate; value ranges from 25-50; type: functional; details: read-out: CIC95
[5] = Maximal plasma concentration was determined.; type: ADME, organism-based; details: rat
[6] = biological target: Human immunodeficiency virus type 1 protease (Human immunodeficiency virus 1, UniProt Q72874); test: Inhibition of HIV-1 Protease

solubility [2] | solubility [3] | Compound | IC95 [1] | further results
– | – | CC(C)[C@@H]1[C@H](OC(=O)N[C@@H](Cc2ccccc2)[C@H](O)CN2CCN(Cc3ccc(-c4cccs4)s3)C[C@H]2C(=O)NC(C)(C)C)CCS1(=O)=O | 50 nM | –
1270 µg/mL (≈ 1920 µM) | 91.3 µg/mL (≈ 138 µM) | CC(C)[C@@H]1[C@H](OC(=O)N[C@@H](Cc2ccccc2)[C@H](O)CN2CCN(CCc3cccs3)C[C@H]2C(=O)NC(C)(C)C)CCS1(=O)=O | – | IC95 [4]: 25 nM; Cmax [5]: > 1000 nM
– | – | CC(C)[C@@H]1[C@H](OC(=O)N[C@@H](Cc2ccccc2)[C@H](O)CN2CCN(Cc3ccsc3)C[C@H]2C(=O)NC(C)(C)C)CCS1(=O)=O | 50 nM | –
37.2 µg/mL (≈ 51.1 µM) | < 0.08 µg/mL | CC(C)[C@@H]1[C@H](OC(=O)N[C@@H](Cc2ccccc2)[C@H](O)CN2CCN(Cc3cc(Br)cs3)C[C@H]2C(=O)NC(C)(C)C)CCS1(=O)=O | 25 nM | –
11.1 µg/mL (≈ 15.7 µM) | 0.1 µg/mL (≈ 0.142 µM) | CC(C)[C@@H]1[C@H](OC(=O)N[C@@H](Cc2ccccc2)[C@H](O)CN2CCN(Cc3cc4ccsc4s3)C[C@H]2C(=O)NC(C)(C)C)CCS1(=O)=O | 12 nM | –
– | – | CC(C)[C@@H]1[C@H](OC(=O)N[C@@H](Cc2ccccc2)[C@H](O)CN2CCN(Cc3cc4ccccc4s3)C[C@H]2C(=O)NC(C)(C)C)CCS1(=O)=O | 100 nM | –
– | – | CC(C)[C@@H]1[C@H](OC(=O)N[C@@H](Cc2ccccc2)[C@H](O)CN2CCN(Cc3ccc(Br)s3)C[C@H]2C(=O)NC(C)(C)C)CCS1(=O)=O | 100 nM | –
– | – | Cc1cc(CN2CCN(C[C@@H](O)[C@H](Cc3ccccc3)NC(=O)O[C@@H]3CCS(=O)(=O)[C@@H]3C(C)C)[C@H](C(=O)NC(C)(C)C)C2)cc(Cl)n1 | 25 nM | –
6.9 µg/mL (≈ 9.79 µM) | < 0.05 µg/mL | CC(C)[C@@H]1[C@H](OC(=O)N[C@@H](Cc2ccccc2)[C@H](O)CN2CCN(Cc3cc4sccc4s3)C[C@H]2C(=O)NC(C)(C)C)CCS1(=O)=O | 6 nM | –
– | – | CC(C)[C@@H]1[C@H](OC(=O)N[C@@H](Cc2ccccc2)[C@H](O)CN2CCN(CCc3ccsc3)C[C@H]2C(=O)NC(C)(C)C)CCS1(=O)=O | 50 nM | –
– | – | CC(C)[C@@H]1[C@H](OC(=O)N[C@@H](Cc2ccccc2)[C@H](O)CN2CCN(Cc3cccs3)C[C@H]2C(=O)NC(C)(C)C)CCS1(=O)=O | – | IC95 [4]: 25 nM
– | – | CC(C)[C@@H]1[C@H](OC(=O)N[C@@H](Cc2ccccc2)[C@H](O)CN2CCN(Cc3csc4ccc(Cl)cc34)C[C@H]2C(=O)NC(C)(C)C)CCS1(=O)=O | 100 nM | IC50 [6]: 0.47 nM
– | – | CCc1ccc(CCN2CCN(C[C@@H](O)[C@H](Cc3ccccc3)NC(=O)O[C@@H]3CCS(=O)(=O)[C@@H]3C(C)C)[C@H](C(=O)NC(C)(C)C)C2)s1 | 50 nM | –
